Measured values as given in US8901129B2, “Methods of facilitating neural cell survival using GDNF family ligand (GFL) mimetics or RET signaling pathway activators” (GeneCode AS, priority 2009, dated 2014).

Assays:
[1] = system: Rat dopaminergic neurons; test: Dopaminergic neuron survival with MPP+ intoxication; assay type: cell-based; conditions: MPP+ 16 μM, 48 hours
Method: Rat dopaminergic neurons were cultured as described by Schinelli et al., 1988. Briefly pregnant female rats of 15 days gestation were killed by cervical dislocation (Rats Wistar; Janvier) and the fetuses removed from the uterus. The embryonic midbrains were removed and placed in ice-cold medium of Leibovitz (L15; Invitrogen) containing 1% of Penicillin-Streptomycin (PS; Invitrogen) and 1% of bovine serum albumin (BSA; Sigma). Only the ventral portions of the mesencephalic flexure were used for the cell preparations as this is the region of the developing brain rich in dopaminergic neurons.
The midbrains were dissociated by trypsinisation for 20 min at 37° C. (10% of trypsin EDTA 10×; Invitrogen) diluted in PBS without calcium and magnesium. The reaction was stopped by the addition of Dulbecco's modified Eagle's medium (DMEM; Invitrogen) containing DNAase I grade II (0.1 mg/ml; Roche Diagnostic;) and 10% of fetal calf serum (FCS; Invitrogen). Cells were then mechanically dissociated by 3 passages through a 10 ml pipette. Cells were then centrifuged at 180×g for 10 min at room temperature on a layer of BSA (3.5%) in L15 medium. The supernatant was discarded and the cells of pellet were re-suspended in a defined culture medium consisting of Neurobasal (Invitrogen) supplemented with B27 (2%; Invitrogen), L-glutamine (0.2 mM; Invitrogen) and 1% of PS solution. Viable cells were counted in a Neubauer cytometer using the trypan blue exclusion test.
The cells were seeded at a density of 69 000 cells/well in 96 well-plates (wells were pre-coated with poly-L-lysine (10 μg/ml; Sigma)) and were cultured at 37° C. in a humidified air (95%)/CO2 (5%) atmosphere. Half of the medium was changed every 2 days with fresh medium. In these conditions, after 5 days of culture, astrocytes were present in the culture and release growth factor allowing neurons differentiation. Three to five percent of the neuronal cell population were dopaminergic neurons.
On day 6, the medium was removed and fresh medium was added with or without MPP^+ at 16 μM and with or without test substance. After 48 hours of intoxication (day 8 of culture), the cells were fixed with PFA 4%. Dopaminergic neurons were labeled by a monoclonal anti-tyrosine hydroxylase (TH) antibody (Sigma). This antibody labels the neurites and cell bodies of dopaminergic neurons. […] For each condition, 2×10 pictures per well were taken using InCell Analyzer™ 1000 (Amersham Biosciences) with 10× magnification. All the images were taken in the same conditions.
Analysis of the neurite length and number of neurons labeled with anti tyrosine hydroxylase (TH) antibodies with or without MPP+ intoxication was carried out using InCell Analyzer™ 1000 3.2.Workstation software. Dopaminergic neurons and total length neurites were counted on the 10 pictures (12 analyses by culture condition).

[2] = molecular target: T1, RET via GFRα (UniProt P07949+Q62997); test: RET phosphorylation assay by immunoprecipitation and Western blotting (FIG. 4); assay type: cell-based; conditions: FIG. 4 lanes; active / inactive
T1 construct: Full-length flag-tagged rat Gfrα1 cDNA; FLAG; expressed in transfected cells; host or cells: αLUC cells: MG87RET murine fibroblasts stably transfected with GFRα1 plasmid, Gal4-Luc and Gal4-Elk
T1 sequence (Q62997 25-430 limits assumed): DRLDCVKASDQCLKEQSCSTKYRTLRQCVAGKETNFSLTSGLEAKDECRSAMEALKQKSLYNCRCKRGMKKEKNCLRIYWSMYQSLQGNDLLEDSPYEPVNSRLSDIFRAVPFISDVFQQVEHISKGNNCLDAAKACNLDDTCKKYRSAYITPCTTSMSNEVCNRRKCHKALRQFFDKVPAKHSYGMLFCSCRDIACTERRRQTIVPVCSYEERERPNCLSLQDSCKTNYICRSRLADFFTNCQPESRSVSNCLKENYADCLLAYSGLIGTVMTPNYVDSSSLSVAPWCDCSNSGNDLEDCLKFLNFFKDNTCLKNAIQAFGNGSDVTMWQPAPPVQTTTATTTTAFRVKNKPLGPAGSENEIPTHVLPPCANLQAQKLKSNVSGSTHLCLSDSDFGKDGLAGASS
T1 sequence (P07949 29-1114): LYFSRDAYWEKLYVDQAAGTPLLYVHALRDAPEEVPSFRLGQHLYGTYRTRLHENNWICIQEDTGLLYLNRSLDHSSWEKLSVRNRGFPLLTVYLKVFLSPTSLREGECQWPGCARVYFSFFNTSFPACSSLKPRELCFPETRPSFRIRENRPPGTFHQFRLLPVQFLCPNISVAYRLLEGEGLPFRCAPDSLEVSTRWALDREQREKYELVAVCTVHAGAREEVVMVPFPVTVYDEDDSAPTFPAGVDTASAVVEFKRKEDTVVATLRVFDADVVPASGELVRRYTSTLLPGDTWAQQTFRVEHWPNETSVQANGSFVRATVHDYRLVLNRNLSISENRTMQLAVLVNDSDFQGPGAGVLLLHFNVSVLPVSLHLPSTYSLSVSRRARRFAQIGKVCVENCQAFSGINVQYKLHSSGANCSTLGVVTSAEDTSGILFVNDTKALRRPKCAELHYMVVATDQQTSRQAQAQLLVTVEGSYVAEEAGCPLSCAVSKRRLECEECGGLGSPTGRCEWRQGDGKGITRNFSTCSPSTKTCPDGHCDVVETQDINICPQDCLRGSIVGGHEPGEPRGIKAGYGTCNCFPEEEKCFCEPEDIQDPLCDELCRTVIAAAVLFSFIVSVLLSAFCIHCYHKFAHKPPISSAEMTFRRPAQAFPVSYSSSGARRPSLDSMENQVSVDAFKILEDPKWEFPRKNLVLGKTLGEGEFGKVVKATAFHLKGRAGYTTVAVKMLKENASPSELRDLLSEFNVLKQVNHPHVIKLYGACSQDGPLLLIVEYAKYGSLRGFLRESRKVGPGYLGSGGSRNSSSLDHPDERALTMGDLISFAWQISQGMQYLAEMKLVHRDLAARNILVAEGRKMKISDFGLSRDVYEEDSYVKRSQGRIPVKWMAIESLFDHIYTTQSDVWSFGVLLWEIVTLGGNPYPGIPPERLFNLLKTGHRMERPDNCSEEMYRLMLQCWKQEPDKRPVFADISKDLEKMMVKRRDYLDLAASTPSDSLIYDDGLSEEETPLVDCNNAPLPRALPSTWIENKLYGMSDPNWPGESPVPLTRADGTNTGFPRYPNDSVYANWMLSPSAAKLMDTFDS
Method: αLUC and NOα cells plated on 35 mm tissue culture dishes were starved for 4 hours in serum-free DMEM and stimulated with 500 ng/ml of PSPN or 100 ng/ml of GDNF (positive control) for 15 min. […] The membranes were washed 3 times for 5 min in TBS-T and incubated in the 1:3000 solution of secondary anti-mouse antibodies conjugated with HRP (DAKO) diluted in TBS-T containing 3% nonfat dry milk for 45 min at room temperature. Membranes were washed with TBS-T for 5×10 min. Stained bands were visualized with ECL reagent (Pierce) using LAS3000 imaging program. […] We used secondary anti-goat antibodies conjugated with HRP (1:1500, DAKO) to detect C-20.

[3] = system: 6-OHDA-treated rats; test: Side effects / toxic effects after intrastriatal injection in 6-OHDA-treated rats; assay type: in vivo; conditions: injected intrastriatally
Method: (§1) GDNF mimetics compounds, GDNF or vehicle is administered to the striatum at 3 weeks after the exposure to the neurotoxin 6-OHDA. The selective damage to dopaminergic neurons in the SNc, as well as striatal levels of dopamine and its metabolites are evaluated 12 weeks after the injection of 6-OHDA with tyrosine hydroxylase (TH) immunohistochemistry and HPLC, respectively. In addition, the behavioral impairment of rats is evaluated by forelimb asymmetry test (cylinder test), amphetamine induced rotation asymmetry test and Y-maze test for stereotypic spontaneous rotation deficits.
(§2) On day 21, rats are re-anesthetized with 5% isoflurane (in 70% N2O and 30% O2; flow 300 ml/min) and placed in a stereotactic frame. During the operation concentration of anesthetic is reduced to 1-1.5%. The rectal temperature is maintained at 37.0±1.0° C. with a homeothermic blanket system. The right brain hemisphere is exposed through a small craniectomy to the skull. A stereotaxic injection of the test compound, GDNF or vehicle is made into the right striatum. Each dosing solution is infused at a speed of 1 μl/min and is equally distributed between 4 sites at the following coordinates: AP+1.0, ML+2.8, DV−6.0, −5.5, −5.0 and −4.4 mm. The cannula is left in place for another 5 min before being withdrawn. The hole in the skull is subsequently filled with repair material and the skin is closed and disinfected. The rats are allowed to recover from anesthesia and are carefully monitored for possible post surgical complications. The animals are returned to the home cages with ad libitum access to food and water.
Animals are monitored daily by laboratory personnel. […] Definitions of acceptable endpoints include: no spontaneous movements and inability to drink or eat in 24-h observation period, massive bleeding, spontaneous inflammation, missing anatomy, swelling or tumors larger than 20 mm, and inability to right itself in 30 sec period.

[4] = system: 6-OHDA lesioned rats; test: Amphetamine induced rotation asymmetry in 6-OHDA rat model of Parkinson's disease (FIG. 7); assay type: in vivo
Text: The objective of this study is to investigate the effect of intrastriatally (i.s.) administered small molecule GDNF mimetics (compounds 13, 16, 319H6 and 292651, structures shown in the description of the Figures, above) in a rat model 6-OHDA of Parkinson's disease. In the sub-acute lesion model used in this study, the lesion of the substantia nigra (SNc) that slowly progresses over weeks is created by injection of 6-OHDA into the proximity of the dopaminergic terminals in the striatum (Kirik-D 1998, Exp. Neurol. 152:259-277). In this model, a portion of the nigrostriatal projection is left intact, which can serve as a substrate for regeneration and functional recovery in response to growth promoting and neuroprotective agents.
as §1
Animals: All animal experiments are carried out according to the National Institute of Health (NIH) guidelines for the care and use of laboratory animals, and approved by the State Provincial Office of Southern Finland. Altogether 108 male Wistar rats, purchased from Charles River, Germany and weighing 220-275 g are used for the experiment. Animals are housed at a standard temperature (22±1° C.) and in a light-controlled environment (lights on from 7 am to 8 pm) with ad libitum access to food and water. Animals are grouped as follows:
as §2, with “In order to generate partial retrograde degeneration into the SNc, 6-OHDA lesioning is carried out according to Sauer and Oertel with modifications (Sauer and Oertel, 1994). Male Wistar rats” for “On day 21, rats”, “are anesthetized” for “are re-anesthetized”, “skull. The dura mater is carefully removed with fine forceps and a” for “skull. A”, “of 6-OHDA (4 μg/μl)” for “of the test compound, GDNF or vehicle”, “striatum. A total of 7 μl of 6-OHDA” for “striatum. Each dosing solution”, “of 0.5” for “of 1”
as §2, with “The rats are allowed to recover from anesthesia and are carefully monitored for possible post surgical complications. The animals are returned to the home cages with ad libitum access to food and water.” left out

For `CCN(CC)S(=O)(=O)c1ccc(OC)c(N2CCN(C(=O)c3ccc(F)cc3C(F)(F)F)CC2)c1` [319H6], the “% Cytoprotection vs controls” value ([1]; 0.1 μM) was 9%, the “% TH+ Neurons” value ([1]; 0.1 μM) was 59% and the “% Cytoprotection vs controls” value ([1]; 1 μM) was 33%. For the same molecule, the “% TH+ Neurons” value ([1]; 1 μM) was 70%, the “% Cytoprotection vs controls” value ([1]; 10 μM) was 36% and the “% TH+ Neurons” value ([1]; 10 μM) was 71%.

With `CC(CCCN(C)Cc1ccccc1)Nc1ccnc2cc(Cl)ccc12` (stereo not drawn) [compound 143511] the “RET activation (phosphotyrosine Western blot of immunoprecipitated RET)” value (“RET activation” below) [2] was “active”.

`CCN(CC)CCCCCCNc1ccnc2cc(Cl)ccc12` [compound 108] was tested, and the “RET activation” value [2] was “inactive”.

With `CCN(CC)CCCC(C)Nc1cc(/C=C/c2ccc(Cl)cc2)nc2cc(N(C)C)ccc12` (stereo not drawn) [compound 292651] the “RET activation” value [2] was “active”, the “toxic effects in behavioral assays” value [3] was “did not cause toxic effects” and the amphetamine-induced ipsilateral rotation ([4]; 1 ug intrastriatal, 3 weeks after 6-OHDA, measured 6 weeks after 6-OHDA) was “reduced amphetamine-induced ipsilateral rotation”. For the same molecule, the “amphetamine-induced ipsilateral rotation of lesioned rats” value ([4]; injected into striatum 3 weeks after 6-OHDA, dose not stated) was “significantly reduce”.

For `CCN(CC)CCCC(C)Nc1ccnc2cc(Cl)ccc12` (stereo not drawn) [chloroquine], the “RET activation” value [2] was “inactive”.

`CCN(CC)CCCC(C)Nc1cc(/C=C/c2ccc(Cl)cc2)nc2ccc(N(C)C)cc12` (stereo not drawn) [compound 219902] was tested, and the “RET activation” value [2] was “active”.

With `Clc1ccc2c(NCCCCCCNc3ccnc4cc(Cl)ccc34)ccnc2c1` [compound 349051] the “RET activation” value [2] was “inactive”.

With `OCCNCCNc1c2ccccc2nc2cc(Cl)ccc12` [compound 13005] the “RET activation” value [2] was “inactive”.

B1: BDNF: native brain-derived neurotrophic factor, comparator in the neuron survival assay (protein, UniProt P23560 19-247, looked up)
Neurotrophic factor BDNF …: APMKEANIRGQGGLAYPGVRTHGTLESVNGPKAGSRGLTSLADTFEHVIEELLDEDQKVRPNEENNKDADLYTSRVMLSSQVPLEPPLLFLLEEYKNYLDAANMSMRVRRHSDPARRGELSVCDSISEWVTAADKKTAVDMSGGTVTVLEKVPVSKGQLKQYFYETKCNPMGYTKEGCRGIDKRHWNSQCRTTQSYVRALTMDSKKRIGWRFIRIDTSCVCTLTIKRGR
In the case of B1, the “% Cytoprotection vs controls” value ([1]; 10 ng/mL) is reported as 49% and the “% TH+ Neurons” value ([1]; 10 ng/mL) is reported as 77%.
